26 compounds from US12686690B2, “Macrocyclic urea orexin receptor agonists” (Merck Sharp & Dohme LLC, priority 2020, dated 2026) can be followed below.

Molecules are shown by their SMILES.

The experiment deals with T1, hOX2R (Homo sapiens, UniProt O43614).
T1 construct: expressed in transfected cells; host or cells: CHO cells (G418 selection)
T1 sequence (O43614 1-444): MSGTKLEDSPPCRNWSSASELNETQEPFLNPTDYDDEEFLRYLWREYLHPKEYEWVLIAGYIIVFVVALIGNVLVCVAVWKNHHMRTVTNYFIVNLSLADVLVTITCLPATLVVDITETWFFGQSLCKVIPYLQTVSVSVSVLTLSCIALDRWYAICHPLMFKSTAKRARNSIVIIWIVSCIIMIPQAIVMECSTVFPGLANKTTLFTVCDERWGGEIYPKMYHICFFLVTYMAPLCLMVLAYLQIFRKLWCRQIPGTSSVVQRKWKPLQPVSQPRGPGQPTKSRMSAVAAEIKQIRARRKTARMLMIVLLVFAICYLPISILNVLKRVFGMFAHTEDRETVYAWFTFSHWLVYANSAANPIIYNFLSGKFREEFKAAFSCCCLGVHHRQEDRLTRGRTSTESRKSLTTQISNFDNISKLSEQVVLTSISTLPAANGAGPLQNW
Kind of experiment: hOX2R IPone assay (orexin receptor agonism). The class given is cell-based. The note with it: IPone readout; for hOX2R_Ipone max %act: maximal activation; for EC50: orexin receptor agonist, read-out: hOX2R_IPone EC50.

As to `CCN1C(=O)NC(CCC(F)(F)F)CCC(F)(F)CCOc2nc(cn3ccnc23)-c2cc(ncc2OC)[C@H]1C` (single isomer, unassigned) [Example 121A], the hOX2R_Ipone max %act is given as 100.4% and the EC50 (as a rule, the midpoint of the concentration-response curve) is 9.8 nM.
For `CCN1C(=O)NC(c2cscn2)CCCCCOc2nc(cn3ccnc23)-c2cccc(c2)[C@H]1C` (single isomer, unassigned) [Example 19A] the same measures were 97.1% and 337 nM.
As to `CCN1C(=O)N[C@@H](CCC(F)(F)F)CCCCCOc2nc(cn3ccnc23)C2=CN=C(S2)C1C` (stereo partly drawn) [Example 95, (15R)-12-ethyl-11-methyl-15-(3,3,3-trifluoropropyl)-11,12,15,16,17,18,19, 20-octahydro-6,22-(azeno)-7,10-epithioimidazo[2,1-c][1,4,9,12,14]oxatet-raazacycloicosin-13(14H)-one], the hOX2R_Ipone max %act is 99.78% and the concentration for a half-maximal effect (EC50) came to 25.4 nM.
With `CCN1C(=O)NCc2nc(cs2)CCOc2nc(cn3ccnc23)-c2cccc(c2)[C@H]1C` [Example 22, (R,27E,6^2Z)-10-ethyl-11-methyl-3-oxa-8,10-diaza-6(4,2)-thiazola-2(6,8)-imidazo[1,2-a]pyrazina-1(1,3)-benzenacycloundecaphan-9-one], the hOX2R_Ipone max %act came to 94.8% and the concentration giving a half-maximal response (EC50) was 82.6 nM.
For `CCN1C(=O)N[C@@H](CCC(F)(F)F)CCCCCOc2nc(cn3ccnc23)C2=CN=C(O2)C1C` (stereo partly drawn) [Example 108, (15R)-12-ethyl-11-methyl-15-(3,3,3-trifluoropropyl)-11,12,15,16,17,18,19, 20-octahydro-6,22-(azeno)-7,10-epoxyimidazo[2,1-c][1,4,9,12,14]oxatet-raazacycloicosin-13(14H)-one] the same measures were 100.6% and 14.9 nM.
For `CCN1C(=O)N[C@@H](CCC(F)(F)F)CCCCCOc2nc(cn3ccnc23)-c2cc(C)nc(c2)[C@H]1C` [Example 107B, (12R,16R)-13-ethyl-9,12-dimethyl-16-(3,3,3-trifluoropropyl)-12,13,16,17,18,19,20, 21-octahydro-6,23-(azeno)-11,7-(metheno)imidazo[2,1-c][1,4,10,13,15] oxatetraazacycloheni-cosin-14(15H)-one] the same measures were 100.1% and 2.4 nM.
`CCN1C(=O)NC(COC)CCCCCOc2nc(cn3ccnc23)-c2cc(ncc2OC)[C@H]1C` (single isomer, unassigned) [Example 58B]: the hOX2R_Ipone max %act is 101.1% and the concentration for a half-maximal effect (EC50) was 0.9 nM.
For `CCN1C(=O)NC(CC2(C(F)(F)F)CC2)CCCCCOc2nc(cn3ccnc23)-c2cc(ncc2OC)[C@H]1C` (single isomer, unassigned) [Example 66B], the hOX2R_Ipone max %act was 101.1% and the EC50 was determined as 0.7 nM.
On to `CCN1C(=O)NCCCOCCOc2nc(cn3ccnc23)-c2cccc(c2)[C@H]1C` [Example 14, (12R)-13-ethyl-12-methyl-12,13,15,16,17,18, 20,21-octahydro-14H-6,23-(azeno)-11,7-(metheno)imidazo [2,1-f][1,4,7,16, 18]dioxatriaza-cyclohenicosin-14-one], for which the hOX2R_Ipone max %act is listed as 101% and the concentration for a half-maximal effect (EC50) amounted to 9.7 nM.
For `CCN1C(=O)N[C@@H](CCC(F)(F)F)CCCCCOc2cc(nn3cc(C)nc23)-c2cc(ncc2OC)[C@H]1C` [Example 166, (3R,7R,E)-4-ethyl-25-methoxy-12,3-dimethyl-7-(3,3,3-trifluoropropyl)-13-oxa-4,6-diaza-1(6,8)-imidazo[1,2-b]pyridazina-2(4,2)-pyridinacyclotridecaphan-5-one] the same measures were 102% and 15.1 nM.
With `CCN1C(=O)N[C@@H](CCC(F)(F)F)CCCCCOc2cc(cc3ccnn23)-c2nc(cnc2OC)C1C` (single isomer, unassigned) [Example 80B], the hOX2R_Ipone max %act is 99.8% and the concentration giving a half-maximal response (EC50) was found to be 2.9 nM.
As for `CCN1C(=O)NC(CC2(C(F)F)CC2)CCCCCOc2nc(cn3ccnc23)-c2cc(ncc2OC)[C@H]1C` (single isomer, unassigned) [Example 70A], the hOX2R_Ipone max %act amounted to 99.1% and the EC50 was 16.5 nM.
For `CCN1C(=O)NC(CC2CC2)CCCCCOc2nc(cn3ccnc23)-c2cc(ncc2OC)[C@H]1C` (single isomer, unassigned) [Example 55A] the same measures were 99.2% and 78.9 nM.
For `CCN1C(=O)N[C@@H](CCC(F)F)CCCCCOc2nc(cn3ncnc23)-c2cc(ncc2Cl)[C@H]1C` [Example 128, (3R,7R,E)-25-chloro-7-(3,3-difluoropropyl)-4-ethyl-3-methyl-13-oxa-4,6-diaza-1(6,8)-[1,2,4]triazolo[1,5-a]pyrazina-2(4,2)-pyridinacyclotridecaphan-5-one] the same measures were 102.9% and 11.2 nM.
As for `CCN1C(=O)NC(C(O)CC(F)(F)F)CCCCCOc2cn3ncnc3c(n2)-c2cc(ncc2OC)C1C` [Example 132, (3R,7R,E)-4-ethyl-25-methoxy-3-methyl-7-((R)-3,3,3-trifluoro-1-hydroxypropyl)-13-oxa-4,6-diaza-1(6,8)-[1,2,4]triazolo[1,5-a]pyrazina-2(4,2)-pyridinacyclotridecaphan-5-one], the hOX2R_Ipone max %act is 102.9% and the half-maximal effective concentration (EC50) came out at 4.98 nM.
Turning to `CCN1C(=O)N[C@@H](CCC(C)(F)F)CCOCCOc2nc(cn3ncnc23)-c2cc(ncc2C)[C@H]1C` [Example 129, (3R,7S,E)-7-(3,3-difluorobutyl)-4-ethyl-25,3-dimethyl-10,13-dioxa-4,6-diaza-1(6,8)-[1,2,4]triazolo[1,5-a]pyrazina-2(4,2)-pyridinacyclotridecaphan-5-one], the hOX2R_Ipone max %act is recorded as 100.2% and the concentration giving a half-maximal response (EC50) is 1.49 nM.
For `CCOCC1CCCCCOc2nc(cn3ccnc23)-c2cc(ncc2OC)[C@@H](C)N(CC)C(=O)N1` (single isomer, unassigned) [Example 62B] the same measures were 100.9% and 1.4 nM.
For `CCN1C(=O)NC(CCC(F)(F)F)CCOCCOc2nc(cn3ccnc23)-c2cc(ncc2OC)[C@H]1C` (single isomer, unassigned) [Example 6B] the same measures were 101.5% and 0.6 nM.
As to `CCN1C(=O)N[C@@H](CCC(F)(F)F)CCCCOc2nc(nn3ccnc23)-c2cc(cnc2OC)[C@H]1C` [Example 46, (3R,7R,E)-4-ethyl-22-methoxy-3-methyl-7-(3,3,3-trifluoropropyl)-12-oxa-4,6-diaza-1(2,4)-imidazo[2,1-f][1,2,4]triazina-2(3,5)-pyridinacyclododecaphan-5-one], the hOX2R_Ipone max %act was determined as 99.9% and the 50% effective concentration (EC50) worked out at 9.9 nM.
`CCN1C(=O)N[C@@H](CCC(C)(F)F)CCCCCOc2nc(cn3ccnc23)-c2ccnc(c2)[C@H]1C` [Example 84, (12R,16R)-16-(3,3-difluorobutyl)-13-ethyl-12-methyl-12, 13,16,17,18,19,20,21-octahydro-6,23-(azeno)-11,7-(metheno)imidazo[2,1-c][1,4,10,13,15] oxatetraazacycloheni-cosin-14(15H)-one]: the hOX2R_Ipone max %act was determined as 99.1% and the concentration giving a half-maximal response (EC50) came out at 1.5 nM.
In the case of `CCN1C(=O)NC(c2nnnn2C)CCCCCOc2nc(cn3ccnc23)-c2cc(ncc2OC)[C@H]1C` (stereo partly drawn) [Example 217, (3R,E)-4-ethyl-2^5-methoxy-3-methyl-7-(1-methyl-1H-tetrazol-5-yl)-13-oxa-4,6-diaza-1(6,8)-imidazo[1,2-a]pyrazina-2(4,2)-pyridinacyclotridecaphan-5-one], the hOX2R_Ipone max %act came to 100.1% and the concentration giving a half-maximal response (EC50) was determined as 0.98 nM.
Take `CCN1C(=O)NC(CCC(F)(F)F)CCOCCOc2cn3ncnc3c(n2)-c2ccnc(c2)C1C` [Example 136, (3R,7S,E)-4-ethyl-3-methyl-7-(3,3,3-trifluoropropyl)-10,13-dioxa-4,6-diaza-1(6,8)-[1,2,4]triazolo[1,5-a]pyrazina-2(4,2)-pyridinacyclotridecaphan-5-one]: the hOX2R_Ipone max %act stood at 101.7% and the concentration giving a half-maximal response (EC50) came to 0.724 nM.
For `CCN1C(=O)NC(C)CCCCCOc2nc(cn3ccnc23)-c2cc(ncc2OC)[C@H]1C` (single isomer, unassigned) [Example 9B] the same measures were 100.9% and 6 nM.
With `CCN1C(=O)N[C@@H](CCC(F)(F)F)CCCCOc2nc(cn3ncnc23)-c2cc(ncc2OC)C1C(F)(F)F` (single isomer, unassigned) [Example 34A], the hOX2R_Ipone max %act stood at 99.9% and the EC50 was found to be 541 nM.
For `CCN1C(=O)N[C@@H](CCC(F)(F)F)CCCCCOc2nc(cn3cc(C)nc23)-c2cc(nc3ccoc23)C1C` (single isomer, unassigned) [Example 75A] the same measures were 96.6% and 528 nM.
For `CCN1C(=O)N[C@@H](CCC(F)(F)F)CCCCCOc2cc(cn3ccnc23)-c2nc(ccc2OC)[C@H]1C` [Example 50, (3R,7R,E)-4-ethyl-23-methoxy-3-methyl-7-(3,3,3-trifluoropropyl)-13-oxa-4,6-diaza-1(6,8)-imidazo[1,2-a]pyridina-2(2,6)-pyridinacyclotridecaphan-5-one] the same measures were 98.7% and 0.8 nM.
